ChEMBL document CHEMBL1201862, “PubChem BioAssay data set” (2004)
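Grown in 96-well plates, cells were treated for 48 hours with each compound at five concentrations. Insufficient inhibition: endpoint recorded as highest concentration tested. At the GI50, growth is halved.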 The source made the active and inactive calls. Cut-off read from the data, not from the text of the source: active = GI50 up to about 1.1 µM and inactive = higher.

Key:
Assay in all cases: NCI tumour cell line growth inhibition, 48 h
[1] = system: HCC 2998
[2] = system: HCT-116
[3] = system: HT-29
[4] = system: OVCAR-4
[5] = system: XF498
[6] = system: OVCAR-8
[7] = system: KM-20L2
[8] = system: NCI-H226
[9] = system: OVCAR-3
[10] = system: SN12C
[11] = system: IGROV-1
[12] = system: OVCAR-5
[13] = system: SF-539
[14] = system: UACC-62
[15] = system: ACHN
[16] = system: Malme-3M
[17] = system: UO-31
[18] = system: SR
[19] = system: SK-OV-3
[20] = system: SK-MEL-2
[21] = system: LOX IMVI
[22] = system: A498
[23] = system: UACC-257
[24] = system: M19-MEL
[25] = system: TK-10
[26] = system: A549
[27] = system: SF-268
[28] = system: HCT-15
[29] = system: EKVX
[30] = system: MOLT-4
[31] = system: DLD-1
[32] = system: HOP-62
[33] = system: COLO 205
[34] = system: NCI-H23
[35] = system: SK-MEL-5
[36] = system: HL-60
[37] = system: SW-620
[38] = system: 786-0
[39] = system: HOP-92
[40] = system: LXFL 529
[41] = system: K562
[42] = system: SNB-78
[43] = system: NCI-H522
[44] = system: SF-295
[45] = system: DMS-114
[46] = system: RXF 393
[47] = system: SK-MEL-28
[48] = system: M14
[49] = system: RPMI-8226
[50] = system: NCI-H460
[51] = system: SNB-19
[52] = system: U-251
[53] = system: CAKI-1
[54] = system: KM12
[55] = system: CCRF-CEM
[56] = system: SNB-75
[57] = system: DMS-273
[58] = system: HOP-18

Measured: GI50

O=C(/C=C(\O)C(=O)O)/C=C(\O)c1ccc(Cl)cc1
inactive: [1] > 100 µM | [2] > 100 µM | [3] > 100 µM | [4] > 100 µM | [5] > 100 µM | [6] > 100 µM | [7] > 100 µM | [8] > 100 µM | [9] > 100 µM | [10] > 100 µM | [11] > 100 µM | [12] > 100 µM | [13] > 100 µM | [14] > 100 µM | [15] > 100 µM | [16] > 100 µM | [17] > 100 µM | [18] > 100 µM | [19] > 100 µM | [20] > 100 µM | [21] > 100 µM | [22] > 100 µM | [23] > 100 µM | [24] > 100 µM | [25] > 100 µM | [26] > 100 µM | [27] > 100 µM | [29] > 100 µM | [30] > 100 µM | [31] > 100 µM | [32] > 100 µM | [33] > 100 µM | [34] > 100 µM | [35] > 100 µM | [36] > 100 µM | [37] > 100 µM | [38] > 100 µM | [39] > 100 µM | [40] > 100 µM | [41] > 100 µM | [42] > 100 µM | [43] > 100 µM | [44] > 100 µM | [45] > 100 µM | [46] > 100 µM | [47] > 100 µM | [48] > 100 µM | [49] > 100 µM | [50] > 100 µM | [51] > 100 µM | [52] > 100 µM | [53] > 100 µM | [54] > 100 µM | [55] > 100 µM | [56] > 100 µM | [57] > 100 µM | [58] > 100 µM
> 100 µM: [28]

O=C1c2ccccc2C(=O)C1(Cl)C1(S(=O)(=O)O)c2ccccc2-c2ccccc21
> 100 µM: [28]
inactive: [1] > 100 µM | [2] > 100 µM | [3] > 100 µM | [4] > 100 µM | [5] > 100 µM | [6] > 100 µM | [7] > 100 µM | [8] > 100 µM | [9] > 100 µM | [10] > 100 µM | [11] > 100 µM | [12] > 100 µM | [13] > 100 µM | [14] > 100 µM | [15] > 100 µM | [16] > 100 µM | [17] > 100 µM | [18] > 100 µM | [19] > 100 µM | [21] > 100 µM | [22] > 100 µM | [23] > 100 µM | [24] > 100 µM | [25] > 100 µM | [26] > 100 µM | [27] > 100 µM | [30] > 100 µM | [31] > 100 µM | [32] > 100 µM | [33] > 100 µM | [34] > 100 µM | [35] > 100 µM | [36] > 100 µM | [37] > 100 µM | [38] > 100 µM | [39] > 100 µM | [40] > 100 µM | [41] > 100 µM | [42] > 100 µM | [43] > 100 µM | [44] > 100 µM | [45] > 100 µM | [46] > 100 µM | [47] > 100 µM | [48] > 100 µM | [49] > 100 µM | [50] > 100 µM | [52] > 100 µM | [53] > 100 µM | [54] > 100 µM | [55] > 100 µM | [56] > 100 µM | [57] > 100 µM | [58] > 100 µM
